The values that follow come from US8052987B2, “Method of administering bisphosphonates” (Novartis Pharmaceuticals Corporation, priority 2000, dated 2011).

The test system of test [1] is patients with postmenopausal osteoporosis. The experiment in a line: Suppression of biochemical markers of bone turnover in the same trial. The class given is in vivo, human. Conditions: throughout the 6 and 12 month dosing intervals. The protocol:
(§1) This was a dose and dose regimen-finding 12 month trial of iv zoledronic acid in patients with postmenopausal osteoporosis. Three hundred and fifty one patients were randomized to six study arms. Patients who had recent exposure to bone active drugs, e.g. bisphosphonates, estrogen, calcitonin, raloxifene, or a history of metabolic bone diseases were excluded. All patients were evaluated at baseline and in 3-monthly visits. Zoledronic acid or placebo was administered as a bolus iv injection into a peripheral vein over 5 minutes at every visit.
Additionally, the degree and duration of suppression of biochemical markers of bone turnover—parathyroid hormone (PTH), bone specific alkaline phosphatase (BSAP), serum C-telopeptide (CTX), serum osteocalcin, urine N-telopeptide (NTX)/creatinine ratio, urine deoxypyridinoline (d-pyd)/creatinine ratio, urine pyridinoline (pyd)/creatinine ratio—was obtained every 3 months and measured in a central laboratory.
(§2) • Placebo • 0.25 mg zoledronic acid every 3 months • 0.5 mg zoledronic acid every 3 months • 1.0 mg zoledronic acid every 3 months • 2.0 mg zoledronic acid every 6 months • 4.0 mg zoledronic acid every 12 months

For test [2] the test system is unchanged. Description: 12 month dose-ranging trial of iv zoledronic acid: percent change from baseline in bone mineral density (DEXA) versus placebo. Conditions: for Difference versus placebo for percent change from baseline in bone mineral density of the lumbar spine; postero anterior (L1-L4): at 12 months, ITT population. Format: in vivo, human.
From the text: “A Multinational, Randomized, Double-Blind, Placebo-Controlled, Parallel-Group, Dose-Ranging, Safety and Efficacy Trial With Intravenous Bolus Injections of Zoledronate In the Treatment of Postmenopausal Osteoporosis”
as §1
Efficacy was ascertained by measurement of percent change from baseline in bone mineral density (BMD) measured by dual energy X-ray absorptiometry (DEXA) as compared to placebo, at 6, 9, and 12 months.
as §2

`O=P(O)(O)C(O)(Cn1ccnc1)P(=O)(O)O` [zoledronate, 2-(imidazol-1yl)-1-hydroxyethane-1,1-diphosphonic acid]: in test [1], the “Suppression of biochemical markers of bone formation and bone resorption” value is recorded as “suppression of bone turnover to the pre-menopausal level”. Also, the “Difference versus placebo for percent change from baseline in bone mineral density of the lumbar spine; postero anterior (L1-L4)” value in test [2] (1 × 4.0 mg (4.0 mg iv every 12 months)) is recorded as 4.6%; in test [2] (2 × 2.0 mg (2.0 mg iv every 6 months)), 4.2%; in test [2] (4 × 0.25 mg (0.25 mg iv every 3 months)), 5.1%; in test [2] (4 × 0.5 mg (0.5 mg iv every 3 months)) it was 4.9%; in test [2] (4 × 1.0 mg (1.0 mg iv every 3 months)), 4.5%. Further, the “percent change from baseline in BMD compared with placebo” value in test [2] (all treatment arms, 12 month results) is recorded as “significantly (p<0.001) greater than placebo”. Moreover, the “Bone mineral density compared to placebo” value in test [2] (at the spine, hip, distal radius, and total body) is “increased compared to placebo”. In test [2] (dose administration as infrequent as every 6 or 12 months), the “bone mass increase (BMD data)” value is “statistically significant and medically relevant bone mass increase”.
